Earlier results as cited in patent US20170209576A1, “DELIVERY COMPOSITIONS AND METHODS” (REGENTS OF THE UNIVERSITY OF MINNESOTA, priority 2014, published 2017).

Legend:
[1] = aqueous solution
[2] = micropipette techniques

Row | critical micelle concentration (CMC) [1] [µM] | pKa of terminal amine group | Molecule | rate of adsorption of monomers into the outer bilayer leaflet [2] [s⁻¹]
1 | 5.8 | – | 1,2-Distearoyl-sn-glycero-3-phosphoethanolamine (DSPE)-PEG^2000 [DSPE-PEG^2000] | –
2 | – | 9.8 | CCCCCCCCCCCCCCCC(=O)OCC(COP(=O)(O)OCCN)OC(=O)CCCCCCCCCCCCCCC (stereo not shown) [DPPE, dipalmitoylphosphatidylethanolamine] | –
3 | 4 | – | CCCCCCCCCCCCCCCC(=O)OC[C@@H](O)COP(=O)([O-])OCC[N+](C)(C)C [MPPC, monopalmitoyl phosphatidyl choline] | 0.2
